# Source: patent publication US20130096107A1, “USE OF AMINODIHYDROTHIAZINES FOR THE TREATMENT OR PREVENTION OF DIABETES” (Hoffmann-La Roche Inc., priority 2009, published 2013)
# “Also recorded” adds a separate entry of the source.
# How the values were obtained:
# pancreas of ZDF rats = assay: Assessment of β-cell function by in situ pancreas perfusion (glucose-stimulated insulin secretion); format: in vivo, rat
# Procedure: (§1) Body weight and food intake were monitored daily. Blood glucose was measured weekly in all rats. After 3 weeks of treatment an oGTT was performed on 6 overnight fasted rats per groups. At about week 4 and after anesthesia, 2 to 3 ZDF rats per day and per group underwent pancreas surgery and in-situ pancreas perfusion with low/high glucose conditions. 120 eluted fractions per rat were collected for glucose and insulin quantification.
# Rats were anesthetized (Temgesic (0.1 ml/100 g) first, then anesthetic cocktail: Ketamine (77 mg/kg), Xylazine (11 mg/kg), i.p. injection, volume 2 ml/kg). Pancreas was surgically isolated from other connecting organs and from nerves and veins and artery afferences and efferences, keeping access to abdominal aorta and portal vein which are both cannulated. Once surgery was done, rats were placed into a temperature controlled box (37° C.) and pancreata were connected to infusion pumps via abdominal aorta.
# The glucose-stimulated insulin secretion (GSIS) was obtained by perfusing pancreata with Krebs-Ringer buffer containing low/high glucose concentration as described into protocol designed in FIG. 7. Basically, pancreata were first perfused with freshly prepared Krebs-Ringer solution (5 ml/min) containing low glucose concentration (2.8 mM) for about 30 minutes, stabilizing basal insulin secretion. Then, the first stimulation with high glucose concentration solution (16.7 mM) was given to sensitize the pancreata, leading to modest phase 1 and phase 2 insulin secretion.
# Pancreas elution fractions were collected in 96-well plates (via a catheter introduced into the portal vein) at regular time intervals and immediately cooled down to 4° C. and subsequently stored at −20° C. until analyzed. At least, 120 eluted fractions per rat were collected for measurement of glucose and insulin levels.
# [1] = system: Zucker Diabetic Fatty (ZDF) rats; assay: Oral glucose tolerance test (oGTT) after chronic treatment of ZDF rats; format: in vivo, rat
# Procedure: This study was conducted with male ZDF rats [ZDF/gmiCrl fa/fa] and lean rats [ZDF/gmiCrl fa/+] (Charles River Laboratories, Sulzfeld, Germany). The ZDF rats are a commonly used model of human type 2 diabetes characterized by insulin resistance, β-cell defects and hyperglycemia. Onset of diabetes in males is at the age of 8 to 10 weeks when fed a diabetogenic diet. All rats (ZDF and Lean rats) with an age of 6 weeks at the beginning of the experiment are fed a special diet (“PURINA PMI 5008”, ZDF_diet=Ssniff R/M−H) and housed 1 per cage (type 3). Ambient temperature is approximately 21° C. and relative humidity 55-65%. A 12 hours light-dark cycle is maintained in the rooms with all tests being performed during the light phase. Access to food and tap water is ad libitum.
# as §1
# An oGTT was conducted on day 18 of treatment. After on overnight fast of approximately 16 h post treatment, rats were given a glucose load of 2 g/kg by gavage. Blood samples were collected immediately prior to glucose challenge (0 min) and +10, +30, +60 and +120 min after glucose challenge and blood glucose and other plasma parameters were determined.
# Blood glucose was measured with a blood glucose monitoring system (Accu-Chek Aviva, Roche Diagnostics GmbH, Rotkreuz, Switzerland). Insulin was measured by ELISA, using the Mercodia Rat Insulin ELISA (Mercodia AB, Uppsala, Sweden).
# Data were analyzed using the software SAS/JMP for Windows (version 6.0.0, SAS Institute Inc., Cary, N.C.). Data were expressed as mean±SEM (standard error of the mean). The number of rats was 6 per group. Comparison was made versus Vehicle, using Analysis of Variance ANOVA followed by post hoc Dunnett's test.
# [2] = system: BACE2 (Tmem27 cleavage) in isolated human pancreatic islets; conditions: 200 nM, 72 h, islets from two human donors
# Procedure: Freshly isolated human islets from two different donors (male, 51 years, BMI: 27.5 kg/m2; […], BMI: 22.2 kg/m2; circa 3000 islets per donor) were obtained from Dr. D. Bosco (Cell Isolation and Transplantation Center, Department of Surgery, Geneva, Switzerland) and maintained in CMRL-1066 (Invitrogen) at 5.6 mmol/l glucose supplemented with 10% FCS, 100 U/ml penicillin, 100 μg/ml streptomycin and 100 μg/ml gentamycin (Sigma) for 2 days before experiments. The present investigation was approved by the institutional ethics committee. […] Islets were collected by centrifugation and total proteins were extracted using CELYA lysis buffer CLB1 (Cat*9000, Zeptosens) following the manufacturer's protocol.
# Total islet proteins (10 μg) were fractionated by NuPAGE 4-12% Bis-TrisGel (Cat*NP0321Box, Invitrogen) and transferred to nitrocellulose using iBlot system (Cat*IB3010-01, Invitrogen).
compound,measurement,setting,value
"C[C@@]1(c2cc(NC(=O)c3ccc(Cl)cn3)ccc2F)CCSC(N)=N1 (single isomer, unassigned) [Example 1]",AUC off-response of insulin secretion (perfused pancreas),"pancreas of ZDF rats; 30 mg/kg, 3 to 4 weeks of treatment, after high glucose 16.7 mM, versus vehicle",reduced
same,basal insulin secretion (perfused pancreas),"pancreas of ZDF rats; 30 mg/kg, 3 to 4 weeks of treatment, low glucose 2.8 mM, versus vehicle",reduced
same,insulin secretion profile (Phase 1/Phase 2),"pancreas of ZDF rats; ZDF rats, chronic treatment, in situ pancreas perfusion",normalized the insulin secretion profile (Phase 1/Phase 2)
same,Insulin AUC (0-120 minutes) during oGTT,"[1]; 8.5 week old ZDF rats treated 17 days, 0.2, 5, 30 mg/kg p.o.",dose-dependent increase in insulin levels without reaching significance
same,fasting insulin levels,"[1]; 8.5 week old ZDF rats treated 17 days, Example 1 p.o., Liraglutide 0.4 mg/kg s.c.",did not change fasting insulin levels compared to vehicle
same,insulin levels during oGTT (post glucose challenge),"[1]; 8.5 week old ZDF rats treated 17 days, glucose 2 g/kg, Example 1 0.2, 5, 30 mg/kg p.o., Liraglutide 0.4 mg/kg s.c.",increased insulin levels (at peak and up to 60 minutes post glucose challenge); also recorded: dose-dependent increase in insulin levels secreted during oGTT
same,fasting blood glucose (FBG) after overnight fasting,"[1]; 8.5 week old ZDF rats, Example 1 0.2-5-30 mg/kg p.o., Liraglutide 0.4 mg/kg s.c., 17 days",trend to reduce fasting blood glucose after overnight fasting conditions (FBG) without reaching significance
same,efficacy in oGTT compared with Liraglutide,"[1]; Example 1 30 mg/kg p.o. versus Liraglutide 0.4 mg/kg s.c., chronic treatment",close to that induced by chronic treatment with Liraglutide
same,post-challenged glucose levels,[1]; ZDF rats after 17 days of oral treatment (summary),reduced post-challenged glucose levels
same,improvement of glucose tolerance (blood glucose during oGTT),"[1]; ZDF rats, 30 mg/kg p.o. daily for 17 days, versus vehicle","reached significance at 30′, 60′ and 120′ post glucose challenge"
same,glucose area under the curve (AUC 0-120 minutes) during oGTT,"[1]; ZDF rats, 0.2, 5, 30 mg/kg p.o. daily for 17 days, oGTT day 18, versus vehicle",dose-dependently reduced; also recorded: dose dependent reduction of glucose AUC reaching significant values at 30 mg/kg
same,full-length TMEM27 (immunoblot),[2],stabilized the full length of TMEM27; also recorded: preservation of full-length TMEM 27
